Results: EP4574152A1, “POTASSIUM CHANNEL ACTIVATORS FOR USE IN THE TREATMENT OF EPILEPTIC DISORDERS” (Fraunhofer-Gesellschaft zur Förderung der angewandten …, priority 2023, dated 2025)
Like-named read-outs stand apart in the source and are kept apart here.

Assays:
Kv7.3 A315T [1] = biological target: T1, Kv7.3 A315T (Homo sapiens, UniProt O43525, A315T); experiment: fluorescence-based thallium flux assay (FluxOR) in CHO cells stably transfected with Kv7.3 A315T; format: cell-based; conditions: for maximum activities: relative to retigabine
T1 construct: expressed in transfected cells; host or cells: CHO, transient
Text: The Fraunhofer repurposing library was initially screened in a cellular model represented by Chinese hamster ovary cells (CHO) stably transfected with a variant of the Kv7.3 channel (carrying the mutation A315T to enhance current size and increase the signal-to-noise ratio). The Kv7.3 A315T cell line was used in a fluorescence-based thallium flux assay (FluxOR, Thermofisher) optimized as a read-out for Kv7 channel function, using retigabine as a positive control.
Compounds in the Fraunhofer repurposing library were tested in Kv7.3 A315T-expressing cells at 10 µM and their Kv7 opening effect was compared to that observed with 10 µM retigabine.

Kv7.3 A315T [2] = biological target: T1, Kv7.3 A315T; experiment: whole-cell patch-clamp in CHO cells transiently transfected with Kv7.3 A315T cDNA; format: cell-based
Procedure: (§1) JNJ-37822681 efficacy in opening Kv7 channels was further investigated through the whole-cell patch-clamp electrophysiological technique, the gold standard technique for investigating ion channels activity and pharmacological modulation.
In order to better evaluate the quantitative differences occurring in Kv7-opening ability between retigabine, and JNJ-37822681, dose-response experiments (0.01-30 µM) were performed to calculate EC50s using the functional parameters of ΔV1/2 (Figure 1C).

PTZ-induced seizures = PTZ-induced seizures in mice; format: in vivo, C57BL/6J mice; conditions: for ED50: Mus musculus, ip; for ED50 Values (mg/Kg) Clonus / ED50 Values (mg/Kg) Tonus: i.p.
Procedure: (§2) JNJ-37822681 was tested in two animal models of acute seizures widely used for the evaluation of new ASMs: 1. a mouse model of generalized myoclonic seizures such as acute exposure to the GABAA receptor antagonist pentylenetetrazol (PTZ); 2. audiogenic seizures induced in genetically epilepsy-prone DBA/2 mice.
(§3) In both animal models, retigabine or JNJ-37822681 were administered i.p, 30 minutes before seizures induction with PTZ or sounds.

audiogenic seizures = audiogenic seizures in DBA/2 mice; format: in vivo; conditions: limits in brackets; for ED50: Mus musculus, ip; for ED50 Values (mg/Kg) Clonus / ED50 Values (mg/Kg) Tonus / ED50 Values (mg/Kg) Wild Running: i.p.
Procedure: as §2, §3

Kv7.2+Kv7.3 channels = biological target: T2, Kv7.2+Kv7.3 channels (Homo sapiens, UniProt O43525+O43526); experiment: whole-cell patch-clamp in CHO cells expressing Kv7.2+Kv7.3 channels; format: cell-based; conditions: calculated from dose-response curves, Kv7.2/7.3 currents
T2 construct: expressed in transfected cells; host or cells: CHO
Text: as §1

[3] = biological target: T3, Kv7.2 channels carrying the W236L mutation (Homo sapiens, UniProt O43526, W236L); experiment: patch-clamp on homomeric Kv7.2 channels carrying the W236L mutation; format: cell-based; conditions: 10 µM
T3 construct: expressed in transfected cells

[4] = 30 minutes before seizures induction with PTZ, limits in brackets
[5] = 30 minutes before seizures induction with sounds

CCOC(=O)Nc1ccc(NCc2ccc(F)cc2)cc1N [retigabine, reference compound]
EC50 (Kv7.3 A315T [1]): 300 nM
maximum activities (Kv7.3 A315T [1]; FluxOR assay): 100%
EC50 (Kv7.3 A315T [2]): 600 ± 100 nM
ED50 (PTZ-induced seizures; read-out: ED50 Values (mg/Kg) Clonus): 13 mg/kg
ED50 (PTZ-induced seizures; read-out: ED50 Values (mg/Kg) Tonus): 9 mg/kg
ED50 Values (mg/Kg) Clonus (PTZ-induced seizures; [4]): 13 (9.2-18.5) mg/Kg
ED50 Values (mg/Kg) Tonus (PTZ-induced seizures; [4]): 9 (7-12) mg/Kg
ED50 (audiogenic seizures; read-out: ED50 Values (mg/Kg) Clonus, i.p., 30 minutes before seizures induction with sounds): 7 mg/kg
ED50 (audiogenic seizures; read-out: ED50 Values (mg/Kg) Tonus, i.p., 30 minutes before seizures induction with sounds): 4.6 mg/kg
ED50 (audiogenic seizures; read-out: ED50 Values (mg/Kg) Wild Running, i.p., 30 minutes before seizures induction with sounds): 12 mg/kg
ED50 Values (mg/Kg) Clonus (audiogenic seizures; [5]): 6.9 (4.3-11) mg/Kg
ED50 Values (mg/Kg) Tonus (audiogenic seizures; [5]): 4.6 (3.6-6) mg/Kg
ED50 Values (mg/Kg) Wild Running (audiogenic seizures; [5]): 12.4 (9-17.3) mg/Kg

Fc1ccc(CN2CCC(Nc3ccc(C(F)(F)F)nn3)CC2)cc1F [JNJ-37822681, N-[1-[(3,4-difluorophenyl)methyl]-4-piperidinyl]-6-(trifluoromethyl)-3-pyridazinamine]
maximum activities (Kv7.3 A315T [1]; FluxOR assay): 83.8%
EC50 (Kv7.3 A315T [1]; FluxOR assay, ten-point dose-response curve from 0.5 nM to 10 µM, read-out: EC50): 140 nM
EC50 (Kv7.3 A315T [2]; calculated from ΔV1/2, dose-response 0.01-30 µM, read-out: EC50): 2000 ± 30 nM
maximal ΔV1/2 (Kv7.3 A315T [2]; dose-response 0.01-30 µM): 37.0±5.4 mV
leftward shift of the channel voltage-dependence of activation (ΔV1/2) (Kv7.3 A315T [2]; perfusion with 1 µM): qualitatively similar effects
EC50 (Kv7.2+Kv7.3 channels): 1200 ± 300 nM
activation of Kv7.2 channels carrying the W236L mutation [3]: failed to activate
ED50 (PTZ-induced seizures; 30 minutes before seizures induction with PTZ, limits in brackets, read-out: ED50 Values (mg/Kg) Clonus): 15 mg/kg
ED50 (PTZ-induced seizures; 30 minutes before seizures induction with PTZ, limits in brackets, read-out: ED50 Values (mg/Kg) Tonus): 9 mg/kg
ED50 Values (mg/Kg) Clonus (PTZ-induced seizures; [4]): 15 (12-18) mg/Kg
ED50 Values (mg/Kg) Tonus (PTZ-induced seizures; [4]): 9 (6-13) mg/Kg
ED50 (audiogenic seizures; 30 minutes before seizures induction with sounds, read-out: ED50 Values (mg/Kg) Clonus): 6 mg/kg
ED50 (audiogenic seizures; 30 minutes before seizures induction with sounds, read-out: ED50 Values (mg/Kg) Tonus): 3 mg/kg
ED50 (audiogenic seizures; 30 minutes before seizures induction with sounds, read-out: ED50 Values (mg/Kg) Wild Running): 11 mg/kg
ED50 Values (mg/Kg) Clonus (audiogenic seizures; [5]): 6 (5-9) mg/Kg
ED50 Values (mg/Kg) Tonus (audiogenic seizures; [5]): 3 (2-5) mg/Kg
ED50 Values (mg/Kg) Wild Running (audiogenic seizures; [5]): 11 (8-13) mg/Kg
